Results published in US6716987B1, “Derivatives of benzofuran or benzodioxazole compounds” (Kyowa Hakko Kogyo Co., Ltd., priority 1995, dated 2004).

Key:
[1] = test system: neutrophil and eosinophil accumulation; test: Effect on neutrophil and eosinophil accumulation in BN rats; format: in vivo, rat; conditions: dose of 30 mg/kg p.o.; BALF 24 hours after antigen
Method: The Howell et al's method (Pulmonary Pharmacology, 8, […] (1995)) was partly modified and used for the active sensitization and the antigen exposure.
Oval albumin (OA) (1 mg) and aluminium hydroxide (200 mg) were subcutaneously injected into male Brown-Norway rats (6 week-age, Nippon Charles River), to which were intra abdominally administered dead cells of Bordetella pertussis for the active sensitization of the rats. After 14 days, the rats were put into a plastic chamber (30×50×30 cm), and left to inspire a 1% (w/v) OA solution for 10 minutes for antigen induction. For the inspiration, used was an ultrasonic nebulizer (NE-U12, by Omron, Tokyo).
The test compound was suspended in 0.5% methyl cellulose, and orally administered (p.o.) to the rats one hour prior to the antigen challenge. The group of the rats to which 0.5% methyl cellulose was administered and which were left to inspire OA was referred to as OA Group, while the group of the rats which were left to inspire a physiological saline solution in place of OA was referred to as Saline Group.
After 24 hours from the antigen induction, bronchoalveolar lavage (BAL) was performed. […] Then, the number of all leukocytes existing in the resulting suspension was counted, using an automatic leukocyte counter (Celltac α MEK-6158, by Nippon Koden, Tokyo). […]

Sunkus murinus = test: Effect on vomiting induction in male Sunkus murinus; format: in vivo; conditions: dose 10 mg/kg i.p., observed for 1 hour after administration
Method: Five to fifteen male Sunkus murinus per group weighing approximately 60 g were used for the test. According to the method of Matsumoto, et. al. [Japan J. Pharmacol., 48, 303 (1988)], Sunkus murinus were placed separately into metal wire cages (width 15 cm×length 21 cm×height 15 cm). Each sample of the test compound was suspened in a 0.5% Tween 80 physiological saline solution and administered intraperitoneally (i.p.) at a dose of 10 ml/kg. […] In the group that was administered the test-compound, the results are represented as the number of vomiting animals/the number of experimental animals. Compound RA was employed as a reference compound.

TNF α production = test: Suppression effect on TNF α production in the LPS induced mouse sepsis model; format: in vivo; conditions: serum TNF α
Method: Lipopolysaccharide (LPS, DIFCO Laboratories) was dissolved in physiological saline to make a final concentration of 0.2 mg/ml. The resulting solution was administered intravenously to the tail of Balb/c male mice (7-week-old) (Charls River Japan Co.) at 200 μl per 20 g body weight of 5 to 6 mice/group. One hour after administration, blood was drawn from a fundus oculi vein of each mouse to obtain serum. […] The concentration of TNF a in serum was measured by enzyme-linked immunosorbent assay (ELISA method) as follows: […] anti-mouse TNF a monoclonal antibody (Pharmingen Inc.) diluted with a phosphate buffer solution (PBS) was added to a 96-well microtiter plate (Nalge Nunc International immuno-plate <MaxiSorp=) at […]; allowed to stand at 4° C. for 12 hours for coating; mixed with […] of a phosphate buffer solution containing 1% bovine serum albumin (BSA) (1% BSA-PBS); allowed to stand at room temperature for 1 hour to block the non-specific binding; washed with phosphate buffer solution; mixed with […] of the subject serum diluted two-fold with 1% BSA-PBS; and allowed to stand at room temperature for 2 hours. Furthermore, recombinant mouse TNF α (Genzyme Corp.) diluted with 1% BSA-PBS was similarly treated and used as a standard substance. These plates were washed three times with PBS (0.05% Tween-PBS) containing 0.05% polyoxyethylenesorbitan monolaurate (Tween 20, Wako Pure Chemical Industries, Ltd.), mixed with […] of biotin-labelled anti-mouse TNF α monoclonal antibody (Method A: Pharmingen Inc.; Method B: Genzyme Corp) diluted with 1% BSA-PBS to make a concentration of 1 mg/ml, allowed to stand at room temperature for 1 hour, washed three times with 0.05% Tween-PBS, mixed with […] of horseradish peroxidase avidin D (Vector Laboratories Inc.) diluted four-thousand-fold with 1% BSA-PBS, and allowed to stand at room temperature for 30 min. Finally, these plates were washed three times with 0.05% Tween-PBS, and mixed with […] of 3,3′,5,5′-tetramethylbenzidine. After color development, the reaction was stopped by adding […] of 10% sulfuric acid solution, and then, the absorbance at 450 nm was measured. The concentration of TNF α in serum was calculated from a calibration curve.
The rate of suppression of each test compound on TNF α production was obtained from the following formula:
Suppression rate=(A−B)/A,
wherein A is the TNF α concentration of the control group and B is the TNF α concentration of the experimental group.
In the above formula, the TNF α concentration of the control group is defined as the value obtained in the absence of the test compound (0.5% methyl cellulose solution alone).
Employed as the reference compounds were 7-methoxy-4-[1-oxo-2-(4-pyridyl)ethyl]-spiro[2,3-dihydrobenzofuran-2,1′-cyclopentane] hydrochloride (disclosed in Example 100 of Japanese Patent Laid-Open No. 8-836624 and hereinafter referred to as Compound RA) having the formula (RA) and 2-benzoyl-4-(3,5-dichloro-4-pyridyl)aminocarbonyl)-7-methoxybenzofuran (disclosed in Example 35 of Japanese Patent Laid-Open No. 8-534708 and hereinafter referred to as Compound RB) having the formula (RB): [drawing 660]

[2] = test system: guinea pig bronchial smooth muscle; test: Suppression of passive Schultz-Dale response in guinea pig bronchial smooth muscle; conditions: Cavia porcellus; ovalbumin-induced constriction of passively sensitized guinea pig tracheal strips; read-out: IC50 (concentration causing 50% relaxation)
Method: For passive sensitization, rabbit anti-ovalbumin serum prepared by the method of Kohda et al. [Nichiyakurishi, 66, 237 (1970)] was peritoneally administered to male Hartley guinea pigs weighing 350 to 500 g, and 24 hours later the tracheae thereof were removed to be used for the experiment. Zig-zag strips were prepared from the tracheae in accordance with the method of Emmerson and Mackay [J. Pharm. Pharmacol., 31, 798 (1979)], and they were suspended in a Krebs-Henseleit solution with aeration of a mixture of 95% oxygen and 5% carbon dioxide at 37° C. After stabilizing for approximately one hour, ovalbumin, as the antigen, was added to the mixture (at a final concentration of […]), and the constriction of the muscle was recorded by a recorder (TYPE 3066; Yokokawa Hokushin Denki) via an isotonic transducer (TD-112S; Nippon Koden). A test compound was cumulatively added to the mixture after the constriction had reached the plateau, and the relaxation ratio was determined. The concentration (IC50) causing 50% relaxation was calculated by linear regression analysis.

[3] = test system: cAMP-specific phosphodiesterase (PDE IV); test: Inhibition of the PDE IV enzyme derived from a dog trachea; format: biochemical; conditions: test compound 10^−6 M; PDE IV from dog tracheal smooth muscle; substrate cAMP 1 μM
Summary of the method: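 Enzyme purified from dog tracheal smooth muscle; [3H]cAMP substrate at 1 μM final in 50 mM BES pH 7.2, 1 mM MgCl2, 0.1 mg/ml soybean trypsin inhibitor, 30° C for 10–30 min, 1.7% DMSO final. After HCl stop, product converted to adenosine by 5′-nucleotidase, separated on DEAE-Sephadex and scintillation-counted.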

[4] = test system: histamine-induced bronchoconstriction; test: Suppression of histamine-induced bronchoconstriction response in guinea pig; format: in vivo; conditions: intravenous administration; histamine 10 μg/kg iv
Method: This test was carried out by a modified Konzett and Rossler method. Under anesthesia with urethane (1.2 g/kg, ip), male Hartley guinea pigs (body weight: 500 to 600 g) were fixed on plates by strings. After undertaking a tracheotomy, cannulae were inserted to the tracheae, right carotid arteries, and left cervical veins. The spontaneous respiration of the guinea pigs was stopped by the administration of gallamie (10 mg/kg) from the left cervical veins via the cannulae. The cannulae inserted into the tracheae were connected to a bronchospasm transducer (Ugo Basile) and a respirator (TB-101, Takashima-shoten, 60 to 70 strokes/minutes, output: 5 cc) and the air overflow volume was recorded by a polygraph (RM-45, Nippon Koden) to measure the amount of bronchoconstriction. For measuring blood pressure, the cannulae inserted in the right carotid arteries were connected to a blood-pressure transducer. Constant bronchoconstriction occurred when histamine (10 μg/kg, iv) was administered at 3 minutes intervals, and the induced bronchoconstriction was used as the control. A test compound was intravenously administered, and one minute later histamine (10 μg/kg, iv) was administered. The test compound was cumulatively administered at 5 minutes intervals, and the bronchoconstriction in control and that after the administration of the test compound was compared.

[5] = Method A, dose 10 mg/kg orally 90 min before LPS
[6] = Method B, dose 30 mg/kg orally 90 min before LPS

| Compound | Number of vomiting animals/Number of experimental animals (Sunkus murinus) | Suppression rate (%) (TNF α production; [5]) | Suppression rate (%) (TNF α production; [6]) | also measured |
| --- | --- | --- | --- | --- |
| COc1ccc(C(=O)Cc2c(Cl)cncc2Cl)c2cc(C(=O)NCCN3CCOCC3)oc12 [Compound 216, N-(2-morpholinoethyl)-4-[2-(3,5-dichloropyridin-4-yl)-1-oxo]ethyl-7-methoxybenzofuran-2-carboxamide] | 0/5 | 75 |  | inhibiting activity against eosinophils [1]: 100%; inhibiting activity against neutrophils [1]: 92% |
| COc1ccc(C(=O)Nc2c(Cl)cncc2Cl)c2cc(C(=O)N3CCN(CCO)CC3)oc12 [Compound 202, 4-(3,5-dichloro-4-pyridyl)aminocarbonyl-7-methoxy-2-[4-(2-hydroxyethyl)-1-piperazinyl]carbonylbenzofuran] | 0/5 | 92 |  |  |
| COc1ccc(C(=O)Cc2c(Cl)cncc2Cl)c2cc(C(=O)N3CCN(CCO)CC3)oc12 [Compound 207, 4-[2-(3,5-Dichloro-4-pyridyl)-1-oxoethyl]-2-[4-(2-hydroxyethyl)-1-piperazinylcarbonyl]-7-methoxybenzofuran] | 0/5 |  | 65 |  |
| COc1ccc(-c2ccc(C(=O)O)cc2)c2c1OC(C)(C)O2 [Compound 204, 7-(4-carboxyphenyl)-2,2-dimethyl-4-methoxy-1,3-benzodioxole] | 2/5 | 79 |  | melting point: 237 to 239 °C |
| COc1ccc(C(=O)Cc2c(Cl)cncc2Cl)c2cc(C(=O)N3CCN(C)CC3)oc12 [Compound 206] | 0/5 |  | 65 |  |
| COc1ccc(C(=O)Nc2c(Cl)cncc2Cl)c2cc(C(=O)CCCN3CCN(C)CC3)oc12 [Compound 214, N-(3,5-dichloropyridin-4-yl)-2-[4-(4-methyl-1-piperazinyl)]-butyryl-7-methoxybenzofuran-4-carboxamide] | 3/5 |  | 65 |  |
| COc1ccc(-c2cnccc2C)c2c1OC1(CCCC1)O2 [Compound 205, 4-methoxy-7-(4-methyl-3-pyridyl)-spiro[1,3-benzodioxole-2,1′-cyclopentane]] | 0/5 | 79 |  |  |
| 7-(4-carboxy-4-pyridyl)-4-methoxy-spiro[1,3-benzodioxole-2,1=-cyclopentane] [Compound 203] | 1/5 | 100 |  |  |
| COc1ccc(C(=O)Cc2ccncc2)c2c1OC1(CCCC1)C2.Cl [RA, 7-methoxy-4-[1-oxo-2-(4-pyridyl)ethyl]-spiro[2,3-dihydrobenzofuran-2,1′-cyclopentane] hydrochloride, reference compound] | 5/5 | 81 | 81 |  |
| COc1ccc(C(=O)Nc2c(Cl)cncc2Cl)c2cc(C(=O)c3ccccc3)oc12 [RB, reference compound] | 0/5 | 48 | 30 |  |
| COc1ccc(/C=C/c2ccncc2)c2c1OC(C)(C)C2 [Compound 68, (E)-7-Methoxy-2,2-dimethyl-4-[2-(4-pyridyl)ethenyl]-2,3-dihydrobenzofuran] |  |  |  | IC50 [2]: 1.6 µM; melting point: 145 to 149 °C; Enzyme Inhibitory Activity (%, 10^−6 M) [3]: 80%; ID50 value (50% inhibitory dose) [4]: 0.076 mg/kg |
| COc1ccc(C(=O)Nc2c(Cl)cncc2Cl)c2cc(C(=O)N3CCN(C)CC3)oc12 [Compound 201, 4-(3,5-dichloro-4-pyridyl)aminocarbonyl-7-methoxy-2-(4-methyl-1-piperazinyl)carbonylbenzofuran] | 0/5 | 70 |  |  |
| COc1ccc(C(=O)Nc2c(Cl)cncc2Cl)c2cc(C(=O)CCCN3CCOCC3)oc12 [Compound 213, N-(3,5-Dichloropyridin-4-yl)-2-(4-morpholino)butyryl-7methoxybenzofuran-4-carboxamide] | 0/5 |  | 65 |  |
